Measured values from patent publication US8361507B2, “Eprosartan mesylate crystalline particles and a process for preparing pure eprosartan” (Hetero Drugs Limited, priority 2007, dated 2013).
Counter-ions that a name gives are not always drawn.

Columns and labels:
[1] = Specific surface area by Brunauer-Emmett-Teller (B.E.T.) nitrogen absorption; format: physicochemical; conditions: B.E.T. method, crystalline particles
Text: Specific surface area is defined in units of square meters per gram (m^2/g). It is usually measured by nitrogen absorption analysis. In this analysis, nitrogen is absorbed on the surface of the substance. The amount of the absorbed nitrogen (as measured during the absorption or the subsequent desorption process) is related to the surface area via a formula known as the B.E.T. formula.

[2] = crystalline particles disclosed in WO 00/53282; cited from earlier work
[3] = cited from earlier work
[4] = Particle size distribution by laser diffraction (Sympatec Helos); format: physicochemical; conditions: crystalline particles
Text: As used herein “Particle Size Distribution (P.S.D.)” means the cumulative volume size distribution of equivalent spherical diameters as determined by laser diffraction at 1 bar dispersive pressure in a Sympatec Helos equipment. “Mean particle size distribution, i.e., d(0.5)” correspondingly, means the median of said particle size distribution.

SMILES	Specific Surface Area [1]	d90 value [2]	solubility in methanol ([3]; methanol)	solubility in water ([3]; water)	90 volume-% of the particles (D90) [4]	Mean particle size (D50) [4]
CCCCc1ncc(/C=C(\Cc2cccs2)C(=O)O)n1Cc1ccc(C(=O)O)cc1 [eprosartan mesylate, (αE)-α-[[2-n-Butyl-1-[(4-carboxyphenyl)methyl]-1H-imidazol-5-yl]methylene-2-thiophenepropanoic acid monomethanesulfonate]	below 0.6 m^2/g	less than 10 micron	soluble	practically insoluble		
CCCCc1ncc(/C=C(\Cc2cccs2)C(=O)O)n1Cc1ccc(C(=O)O)cc1 [Example 2, eprosartan mesylate]	1.09 m^2/g				33.48 μm	12.13 μm
CCCCc1ncc(/C=C(\Cc2cccs2)C(=O)O)n1Cc1ccc(C(=O)O)cc1 [Reference Example 3, eprosartan mesylate]	0.53 m^2/g				213.72 μm	70.56 μm
CCCCc1ncc(/C=C(\Cc2cccs2)C(=O)O)n1Cc1ccc(C(=O)O)cc1 [Example 4, eprosartan mesylate]	1.11 m^2/g				30.42 μm	11.23 μm
